Residue numbers refer to the chain shown, from its start.
What was measured:
[1] = target: T1, AmGSTF (Alopecurus myosuroides, UniProt Q9ZS17); experiment: dose-response inhibition of GST activity; format: biochemical
T1 construct: gene GST2c; full length, synthetic gene, His-tagged (C-His vector), E. coli, Ni-IDA-Sepharose purified, homodimer
T1 sequence (Q9ZS17 1-219): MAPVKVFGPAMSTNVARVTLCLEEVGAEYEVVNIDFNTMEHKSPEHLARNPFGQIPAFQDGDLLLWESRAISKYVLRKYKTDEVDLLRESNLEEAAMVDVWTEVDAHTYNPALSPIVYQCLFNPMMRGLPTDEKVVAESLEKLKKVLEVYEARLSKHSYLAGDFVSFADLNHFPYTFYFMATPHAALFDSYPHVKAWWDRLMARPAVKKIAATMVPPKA
From the text: dose-response inhibition of GST activity on AmGSTF

[2] = system: T2, sh155; experiment: dose-response inhibition of GST activity; format: biochemical, Alopecurus myosuroides
T2 construct: gene AmGSTF; DNA-shuffled GSTF, 17 mutations vs AmGSTF (named in text: S90G, E93K, Q119E, F122I, M125L, DEK132-134NQT)
From the text: dose-response inhibition of GST activity on sh155

[3] = target: T3, HvGSTF (Hordeum vulgare, UniProt Q8VWW3); experiment: dose-response inhibition of GST activity; format: biochemical
T3 construct: gene GST6; full length, pEXP5-CT/TOPO template, His-tagged, E. coli, Ni-IDA-Sepharose purified, homodimer
T3 sequence (Q8VWW3 1-219): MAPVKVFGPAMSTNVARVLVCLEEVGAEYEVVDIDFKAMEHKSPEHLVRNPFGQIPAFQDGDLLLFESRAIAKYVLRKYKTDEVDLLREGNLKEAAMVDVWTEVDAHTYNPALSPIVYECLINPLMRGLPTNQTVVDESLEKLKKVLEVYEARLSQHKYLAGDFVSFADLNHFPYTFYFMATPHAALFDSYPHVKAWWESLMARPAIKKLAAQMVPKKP
From the text: dose-response inhibition of GST activity on HvGSTF

[4] = target: T4, LrGSTF (Lolium rigidum, UniProt M5BPX4); experiment: dose-response inhibition of GST activity; format: biochemical
T4 construct: gene GST; full length, synthetic gene, His-tagged (C-His vector), E. coli, Ni-IDA-Sepharose purified, homodimer
T4 sequence (M5BPX4 1-219): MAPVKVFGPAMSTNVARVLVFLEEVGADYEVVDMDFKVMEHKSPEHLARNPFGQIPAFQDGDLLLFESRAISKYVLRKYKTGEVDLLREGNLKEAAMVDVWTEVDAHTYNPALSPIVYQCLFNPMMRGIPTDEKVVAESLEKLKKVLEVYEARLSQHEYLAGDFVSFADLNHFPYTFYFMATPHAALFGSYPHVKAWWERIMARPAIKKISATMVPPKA
From the text: dose-response inhibition of GST activity on LrGSTF

[5] = system: T5, sh101; experiment: dose-response inhibition of GST activity; format: biochemical, Alopecurus myosuroides
T5 construct: gene AmGSTF; DNA-shuffled GSTF, 11 mutations vs AmGSTF (named in text: S90G, E93K, Q119E, F122I, M125L, DEK132-134NQT)
From the text: dose-response inhibition of GST activity on sh101

[6] = system: T6, sh49; experiment: dose-response inhibition of GST activity; format: biochemical, Alopecurus myosuroides
T6 construct: gene AmGSTF; keeps F122, M125, E93 and DEK132-134 of AmGSTF; C-His, E. coli, dimer
From the text: dose-response inhibition of GST activity on sh49

[7] = system: T7, sh168; experiment: dose-response inhibition of GST activity; format: biochemical, Alopecurus myosuroides
T7 construct: gene AmGSTF; has K93; keeps F122, M125 and DEK132-134 of AmGSTF; C-His, E. coli, dimer
From the text: dose-response inhibition of GST activity on sh168

[8] = target: T8, TdGSTF (Triticum turgidum, UniProt A0A9R0QM20); experiment: dose-response inhibition of GST activity; format: biochemical
T8 construct: gene TRITD_1Bv1G036980; full length, pEXP5-CT/TOPO template, His-tagged, E. coli, Ni-IDA-Sepharose purified, homodimer
T8 sequence (A0A9R0QM20 1-219): T3 sequence (Q8VWW3 1-219) with D82N, E83G, N91D, L113I, K158E, S200R, I207V
From the text: dose-response inhibition of GST activity on TdGSTF

[9] = target: T8, TdGSTF; experiment: steady-state kinetics, CDNB conjugation; format: biochemical; settings: read-out: S0.5 (mM) / CDNB; co-substrate GSH; 0.1 M sodium phosphate pH 6.5, 37 °C; positive cooperativity, nH 1.43
From the text: steady-state kinetics, CDNB conjugation on TdGSTF

[10] = target: T3, HvGSTF; experiment: steady-state kinetics, CDNB conjugation; format: biochemical; settings: read-out: S0.5 (mM) / CDNB; co-substrate GSH; 0.1 M sodium phosphate pH 6.5, 37 °C; positive cooperativity, nH 1.46
From the text: steady-state kinetics, CDNB conjugation on HvGSTF

[11] = system: T5, sh101; experiment: steady-state kinetics, CDNB conjugation; format: biochemical, Alopecurus myosuroides; settings: co-substrate GSH; 0.1 M sodium phosphate pH 6.5, 37 °C; nH 1.1; read-out: S0.5 (mM) / CDNB
From the text: steady-state kinetics, CDNB conjugation on sh101

[12] = system: T2, sh155; experiment: steady-state kinetics, CDNB conjugation; format: biochemical, Alopecurus myosuroides; settings: co-substrate GSH; 0.1 M sodium phosphate pH 6.5, 37 °C; nH 1.02; read-out: S0.5 (mM) / CDNB
From the text: steady-state kinetics, CDNB conjugation on sh155

[13] = target: T4, LrGSTF; experiment: steady-state kinetics, CDNB conjugation; format: biochemical; settings: read-out: S0.5 (mM) / CDNB; co-substrate GSH; 0.1 M sodium phosphate pH 6.5, 37 °C; positive cooperativity, nH 1.41
From the text: steady-state kinetics, CDNB conjugation on LrGSTF

[14] = target: T1, AmGSTF; experiment: steady-state kinetics, CDNB conjugation; format: biochemical; settings: read-out: S0.5 (mM) / CDNB; co-substrate GSH; 0.1 M sodium phosphate pH 6.5, 37 °C; positive cooperativity, nH 1.5
From the text: steady-state kinetics, CDNB conjugation on AmGSTF

SMILES	IC50 [1]	IC50 [2]	IC50 [3]	IC50 [4]	IC50 [5]	IC50 [6]	IC50 [7]	IC50 [8]	Km [9]	Km [10]	Km [11]	Km [12]	Km [13]	Km [14]
CCCCOCN(C(=O)CCl)c1c(CC)cccc1CC [butachlor]	7.3 ± 0.4 µM	3.4 ± 0.1 µM	9.2 ± 0.6 µM	7.1 ± 0.5 µM	5.9 ± 0.4 µM	2.6 ± 0.04 µM	3.1 ± 0.08 µM	9.9 ± 0.2 µM						
O=[N+]([O-])c1ccc(Cl)c([N+](=O)[O-])c1 [CDNB]									0.51 ± 0.02 mM	0.52 ± 0.01 mM	0.41 ± 0.02 mM	0.77 ± 0.06 mM	0.76 ± 0.04 mM	0.65 ± 0.03 mM
